Laboratory results reported in patent US7897772B2, “Acid addition salt of irinotecan” (priority 2004, dated 2011).
Where a name gives a salt, the structure may show the parent alone.

Assays:
[1] = Dissolution of irinotecan acid addition salts in water at 100 mg/mL at room temperature and state of the solution after 6 days of stirring (Example 1); assay type: physicochemical; details: for State of the Solution after Day 6: 100 mg/mL aqueous solution, membrane-filtered, stirred at room temperature (25° C.) for 6 days, visually observed; for Dissolution of the salt in water at room temperature: salt content adjusted to 100 mg/mL, no heating
Method: To an aqueous suspension of irinotecan (1-ethyl-10-[4-(1-piperidino)-1-piperidino]carbonyloxycamptothecin) produced through the method disclosed in Patent Document 1, each acid species was added, to thereby produce a corresponding irinotecan acid addition salt. The irinotecan acid addition salt content was adjusted to 100 mg/mL. […] Each of the aqueous solutions employing sulfuric acid, phosphoric acid methanesulfonic acid, citric acid, maleic acid, and succinic acid, respectively, was filtered by a membrane filter, and the filtrate was stirred at room temperature (25° C.). After continuous stirring for 6 days, the aqueous solution was visually observed so as to evaluate the state of the solution.

[2] = Peroral absorbability in beagles: plasma irinotecan level and pharmacokinetic analysis (Example 6); assay type: in vivo
Description: To each beagle, a solid chow (about 350 g) was fed once a day at around 3 p.m., and the unconsumed chow was removed at around 9 a.m. on the following day, except that on the day before the day of administration the unconsumed chow was removed about two hours after feeding. On the day of administration, blood was drawn three hours after administration and the chow was fed after blood collection. On the day after the day of administration, the unconsumed chow was removed at 9 a.m.
After administration, tap water (about 20 mL) was fed to the mouth of the beagle by use of an injection syringe.
The thus-collected blood samples were dispensed into 1.5-mL tubes, to which heparin sodium (20 μL, 20 units) had been added in advance and which had been dried under nitrogen flow (tubes employed for the first administration were not dried). The samples were centrifuged (4° C., about 13,000×g, one minute) to thereby obtain plasma.
The lower quantification limit was […] plasma.
Non-compartmental analysis of the obtained data was performed by use of a WinNonlin Ver4.1. Data of the following pharmacokinetic parameters were obtained.
Final phase half-time (T1/2),
Time to reach maximum plasma level (Tmax),
Maximum plasma level (Cmax),
Area under time-level curve to infinite time (AUC0-inf),
Bioavailability (BA), wherein
Mean absorption time (MAT), wherein
MAT(h)=(mean residence time (MRT0-inf) after oral administration)−(mean residence time (MRT0-inf) after intravenous injection).

[3] = Dissolution of 100 mg/mL salt suspensions on heating and later crystal deposition at 25° C. (Example 2); assay type: physicochemical; details: 100 mg/mL, stirred at 100° C. for 30 minutes
Method: The thus-produced irinotecan nitric acid addition salt solution was stirred at 25° C. After stirring of the solution for about 42 hours, crystals of the irinotecan nitric acid addition salt were deposited.

[4] = Three-month room-temperature storage of 20, 30 and 40 mg/mL aqueous solutions, visual observation (Example 5); assay type: physicochemical; details: three months
Description: The filtrate was allowed to stand at room temperature for three months, and the aqueous solution after storage was visually observed so as to evaluate the solution state.

[5] = peroral, 10 mg/kg as irinotecan
[6] = peroral, 10 mg/kg as irinotecan, mean ± SD (number of samples in parentheses), 10 mg/kg
[7] = peroral, 10 mg/kg as irinotecan, mean ± SD (number of samples in parentheses), listed as irinotecan sulfuric acid addition salt, 10 mg/kg
[8] = peroral capsule, 10 mg/kg as irinotecan, 20 min after administration
[9] = peroral, 10 mg/kg as irinotecan, mean ± SD (number of samples in parentheses), listed as irinotecan methanesulfonic acid addition salt, 10 mg/kg

For `CCc1c2c(nc3ccc(OC(=O)N4CCC(N5CCCCC5)CC4)cc13)-c1cc3c(c(=O)n1C2)COC(=O)[C@]3(O)CC` [Irinotecan citric acid addition salt, irinotecan citric acid salt], the “State of the Solution after Day 6” value [1] was “No crystal deposited” and the “Dissolution of the salt in water at room temperature” value (“Dissolution of the salt in water” for short) ([1]; listed as citric acid) was “dissolved in water at room temperature”.
In the case of `CCc1c2c(nc3ccc(OC(=O)N4CCC(N5CCCCC5)CC4)cc13)-c1cc3c(c(=O)n1C2)COC(=O)[C@]3(O)CC` [Irinotecan sulfuric acid addition salt, irinotecan sulfuric acid salt], the “State of the Solution after Day 6” value [1] is reported as “No crystal deposited”, the “Dissolution of the salt in water” value [1] is reported as “dissolved in water at room temperature” and the concentration at 10 min ([2]; male, beagle, dog, plasma, oral, 10 mg/kg, peroral capsule, 10 mg/kg as irinotecan, 10 min after administration, mean (n=6) ± SD) is reported as 126 ± 112 ng/mL. For the same molecule, the concentration at 20 min ([2]; male, beagle, dog, plasma, oral, 10 mg/kg, peroral capsule, 10 mg/kg as irinotecan, 20 min after administration, mean (n=6) ± SD) was 1560 ± 1550 ng/mL, the concentration at 20 min ([2]; male, beagle, dog, plasma, oral, 10 mg/kg, peroral, 10 mg/kg as irinotecan, twenty minutes after administration) was 1560 ng/mL and the “BA (bioavailability)” value ([2]; peroral 10 mg/kg as irinotecan, AUC0-inf oral ÷ AUC0-inf intravenous × 100) was 70.14%. For the same molecule, the “Time after administration at which the plasma level became measurable” value [2, 5] was 10 min, the “Plasma irinotecan level maintained” value ([2]; peroral, 10 mg/kg as irinotecan, from hour 1 to hour 3) was no less than 3 µg/mL and the “AUC0-inf (area under time-level curve to infinite time)” value (shortened to “AUC0-inf”) [2, 6] was 18.54 ± 1.59(5)^$ μg · h/mL. The “Tmax (time to reach maximum plasma level)” value [2, 6] was 2.33 ± 0.52(6) h, the “AUC0-inf” value [2, 7] was 13.54 µg·h/mL and the “Cmax (maximum plasma level)” value [2, 7] was 3670 ng/mL.
In the case of `CCc1c2c(nc3ccc(OC(=O)N4CCC(N5CCCCC5)CC4)cc13)-c1cc3c(c(=O)n1C2)COC(=O)[C@]3(O)CC` [Irinotecan phosphoric acid addition salt, irinotecan phosphoric acid salt], the “Dissolution of the salt in water” value ([1]; listed as phosphoric acid) is reported as “dissolved in water at room temperature”.
With `Br.CCc1c2c(nc3ccc(OC(=O)N4CCC(N5CCCCC5)CC4)cc13)-c1cc3c(c(=O)n1C2)COC(=O)C3(O)CC` (stereo not shown) [Irinotecan hydrobromic acid addition salt, reference compound] the “State of the Solution after Day 6 (footnote symbol: salt not dissolved)” value ([1]; 100 mg/mL in water at room temperature) was “*1”, the “Dissolution of the salt in water” value [1] was “not dissolved in water at room temperature” and the Dissolution on heating [3] was “maintained undissolved”.
In the case of `CCc1c2c(nc3ccc(OC(=O)N4CCC(N5CCCCC5)CC4)cc13)-c1cc3c(c(=O)n1C2)COC(=O)[C@]3(O)CC` [Irinotecan fumaric acid addition salt, reference compound], the “Dissolution of the salt in water” value ([1]; listed as fumaric acid) is reported as “not dissolved in water at room temperature”.
For `CCc1c2c(nc3ccc(OC(=O)N4CCC(N5CCCCC5)CC4)cc13)-c1cc3c(c(=O)n1C2)COC(=O)[C@]3(O)CC` [Irinotecan maleic acid addition salt, irinotecan maleic acid salt], the “Dissolution of the salt in water” value ([1]; listed as maleic acid) was “dissolved in water at room temperature”.
With `CCc1c2c(nc3ccc(OC(=O)N4CCC(N5CCCCC5)CC4)cc13)-c1cc3c(c(=O)n1C2)COC(=O)[C@]3(O)CC` [Irinotecan (7-ethyl-10-[4-(1-piperidino)-1-piperidino]carboxyoxycamptothecin) hydrochloride, reference compound] the “Dissolution of the salt in water” value ([1]; listed as hydrochloric acid, hydrochloride) was “not dissolved in water at room temperature”, the concentration at 3 h ([2]; male, beagle, dog, plasma, oral, 10 mg/kg, peroral, 10 mg/kg as irinotecan, 3 h, mean (n=6) ± SD) was 2010 ± 450 ng/mL and the concentration at 4 h ([2]; male, beagle, dog, plasma, oral, 10 mg/kg, peroral, 10 mg/kg as irinotecan, 4 h, mean (n=6) ± SD) was 1620 ± 390 ng/mL. It also gave a concentration at 6 h ([2]; male, beagle, dog, plasma, oral, 10 mg/kg, peroral, 10 mg/kg as irinotecan, 6 h, mean (n=6) ± SD) of 947 ± 363 ng/mL, a concentration at 8 h ([2]; male, beagle, dog, plasma, oral, 10 mg/kg, peroral, 10 mg/kg as irinotecan, 8 h, mean (n=6) ± SD) of 538 ± 264 ng/mL and a concentration at 12 h ([2]; male, beagle, dog, plasma, oral, 10 mg/kg, peroral, 10 mg/kg as irinotecan, 12 h, mean (n=6) ± SD) of 179 ± 138 ng/mL. For the same molecule, the AUC(0-inf) ([2]; male, beagle, dog, plasma, po, 10 mg/kg, peroral, 10 mg/kg as irinotecan, mean ± SD (number of samples in parentheses), read-out: AUC0-inf (area under time-level curve to infinite time)) was 11200 ng·h/mL, the Cmax ([2]; male, beagle, dog, plasma, po, 10 mg/kg, peroral, 10 mg/kg as irinotecan, mean ± SD (number of samples in parentheses), read-out: Cmax (maximum plasma level)) was 2030 ng/mL and the Tmax ([2]; male, beagle, dog, plasma, po, 10 mg/kg, peroral, 10 mg/kg as irinotecan, mean ± SD (number of samples in parentheses), read-out: Tmax (time to reach maximum plasma level)) was 2.83 ± 0.41 h. For the same molecule, the “BA (bioavailability)” value ([2]; peroral 10 mg/kg as irinotecan, AUC0-inf oral ÷ AUC0-inf intravenous × 100, listed as irinotecan hydrochloric acid addition salt, hydrochloride) was 48.80%, the “Plasma irinotecan level (no mean given)” value ([2]; peroral capsule, 10 mg/kg as irinotecan, 10 min after administration, hydrochloride, 10 mg/kg) was “—^b) (≧3 Beagles of a group consisting of six beagles exhibited a plasma level of ≦5 ng/mL.)” and the “Plasma irinotecan level (no mean given)” value [2, 8] was “— (≧3 Beagles of a group consisting of six beagles exhibited a plasma level of ≦5 ng/mL.)”.
`CCc1c2c(nc3ccc(OC(=O)N4CCC(N5CCCCC5)CC4)cc13)-c1cc3c(c(=O)n1C2)COC(=O)[C@]3(O)CC` [irinotecan methanesulfonic acid salt] gave a bioavailability ([2]; male, beagle, dog, plasma, po, 10 mg/kg, peroral 10 mg/kg as irinotecan, AUC0-inf oral ÷ AUC0-inf intravenous × 100, read-out: BA (bioavailability)) of 61 ± 3.84%.
In the case of `CCc1c2c(nc3ccc(OC(=O)N4CCC(N5CCCCC5)CC4)cc13)-c1cc3c(c(=O)n1C2)COC(=O)[C@]3(O)CC.O=[N+]([O-])O` [Nitric acid addition salt (1), irinotecan nitric acid salt], the “Solution state after storage” value ([4]; 20 mg/mL aqueous solution) is reported as “−”, the “Solution state after storage” value ([4]; 30 mg/mL aqueous solution) is reported as “−” and the “Solution state after storage” value ([4]; 40 mg/mL aqueous solution) is reported as “+”.
In the case of `CCc1c2c(nc3ccc(OC(=O)N4CCC(N5CCCCC5)CC4)cc13)-c1cc3c(c(=O)n1C2)COC(=O)[C@]3(O)CC.O=[N+]([O-])O` [Nitric acid addition salt (2), irinotecan nitric acid salt], the “Solution state after storage” value ([4]; 20 mg/mL aqueous solution) is reported as “−”, the “Solution state after storage” value ([4]; 30 mg/mL aqueous solution) is reported as “−” and the “Solution state after storage” value ([4]; 40 mg/mL aqueous solution) is reported as “−”.
For `CCc1c2c(nc3ccc(OC(=O)N4CCC(N5CCCCC5)CC4)cc13)-c1cc3c(c(=O)n1C2)COC(=O)C3(O)CC.O=S(=O)(O)O` (stereo not shown) [Sulfuric acid addition salt (2), irinotecan sulfuric acid salt], the “Solution state after storage” value ([4]; 20 mg/mL aqueous solution) was “−”, the “Solution state after storage” value ([4]; 30 mg/mL aqueous solution) was “−” and the “Solution state after storage” value ([4]; 40 mg/mL aqueous solution) was “−”.
With `CCc1c2c(nc3ccc(OC(=O)N4CCC(N5CCCCC5)CC4)cc13)-c1cc3c(c(=O)n1C2)COC(=O)[C@]3(O)CC` [Irinotecan methanesulfonic acid addition salt] [irinotecan methanesulfonic acid salt] the “State of the Solution after Day 6” value [1] was “No crystal deposited”, the “Dissolution of the salt in water” value [1] was “dissolved in water at room temperature” and the “Plasma irinotecan level (no mean given)” value ([2]; peroral capsule, 10 mg/kg as irinotecan, 10 min after administration, 10 mg/kg) was “— (≧3 Beagles of a group consisting of six beagles exhibited a plasma level of ≦5 ng/mL.)”. For the same molecule, the “Plasma irinotecan level (no mean given)” value [2, 8] was “— (≧3 Beagles of a group consisting of six beagles exhibited a plasma level of ≦5 ng/mL.)”, the “Time after administration at which the plasma level reached the maximum (mean profile, text)” value [2, 5] was “two” and the “AUC0-inf” value [2, 6] was 17.58 ± 2.08(5)^$ μg · h/mL. The “Tmax (time to reach maximum plasma level)” value [2, 6] was 2.17 ± 0.41(6) h, the “AUC0-inf” value [2, 9] was 17.68 µg·h/mL and the “Cmax (maximum plasma level)” value [2, 9] was 3470 ng/mL.
With `CCc1c2c(nc3ccc(OC(=O)N4CCC(N5CCCCC5)CC4)cc13)-c1cc3c(c(=O)n1C2)COC(=O)[C@]3(O)CC` [Irinotecan succinic acid addition salt, irinotecan succinic acid salt] the “Dissolution of the salt in water” value ([1]; listed as succinic acid) was “dissolved in water at room temperature”.
With `CCc1c2c(nc3ccc(OC(=O)N4CCC(N5CCCCC5)CC4)cc13)-c1cc3c(c(=O)n1C2)COC(=O)[C@]3(O)CC.O=P(O)(O)O` [Phosphoric acid addition salt (2), irinotecan phosphoric acid salt] the “Solution state after storage” value ([4]; 20 mg/mL aqueous solution) was “−”, the “Solution state after storage” value ([4]; 30 mg/mL aqueous solution) was “−” and the “Solution state after storage” value ([4]; 40 mg/mL aqueous solution) was “−”.
